US20200199541A1, “BLOOD VESSEL ORGANOID, METHODS OF PRODUCING AND USING SAID ORGANOIDS” (IMBA - INSTITUT FÜR MOLEKULARE BIOTECHNOLOGIE GMBH, priority 2017, published 2020)
Entries after “also recorded” stand apart in the source; their conditions may differ.

Legend:
[1] = tested on: human blood vessel organoids; assay: Diabetic basement membrane thickening (Collagen IV) in human blood vessel organoids cultured in diabetic medium; format: cell-based; conditions: for increase of Col IV+ basement membrane under diabetic conditions: 75 mM Glucose, 1 ng/mL IL-6, 1 ng/mL TNF-α, 10 μM RO4929097, 1 μM Dehydroxy-LY411575, 1 μM LY411575; for high glucose/TNFα/IL6-induced thickening of the basal blood vessel membrane (Collagen IV): diabetic medium 75 mM Glucose, 1 ng/mL TNFα, 1 ng/mL IL-6, drug doses (DAPT 25 μM); for diabetic basement membrane thickening (Col IV) on blocking Notch pathway members: 2 weeks diabetic media (hyperglycemia + IL-6 + TNF-a), blocking antibodies or non-crosslinked recombinant proteins
Method: Modeling diabetic vasculopathy in human vascular organoids. Established endothelial networks in vascular organoids were cultured in a non-diabetic control medium (17 mM Glucose) or diabetic medium (75 mM Glucose, in the presence of absence of human TNFα (1 ng/mL, Invitrogen PHC3011) and/or IL-6 (1 ng/mL, Peprotech 200-06)) for up to 3 weeks before the basement membrane was investigated by Collagen type IV immunostaining and electron microscopy. D-Mannitol was used in non-diabetic media to control for hyperosmotic effects. For basement membrane quantifications, acquired z-stacks were analysed and the thickness of ColIV coats around luminal structures were measured using ImageJ software. For drug treatment, organoids were exposed to diabetic medium (75 mM Glucose, 1 ng/mL human TNFα, and 1 ng/mL IL-6) in the presence or absence of the following drugs: 2,4-Thiazolidinedione (5 mM, Abcam ab144811), Metformin (5 mM, Abcam ab120847), Acarbose (80 μg/mL, Sigma A8980), […] (100 μM, Sigma N3538), Diphenyleneiodonium (10 μM), Glimepiride (30 nM, Sigma G2295), Pioglitazone (10 μM, Sigma E6910). The following small molecule inhibitors were used: N-Acetyl-L-cysteine (500 μM, Sigma, A7250), CHIR99021 (10 μM, Tocris 4423), Goe6976 (100nM, Merck U51365250), MK2206 (10 μM, EubioS1078), QNZ (10 μM, Eubio […]), 5B203580 (10 μM, Eubio […]), SCH772984 (500 nM, Eubio […], Calbiochem 688000), DAPT (25 μM, Sigma D5942), 5B431542 (10 μM, Abcam ab120163).

[2] = tested on: human vascular organoid transplants; assay: Vessel leakage (FITC-Dextran extravasation) of human vascular organoid transplants in diabetic STZ mice; format: in vivo, mouse; conditions: diabetic STZ NSG mice, DAPT 5 mg/kg
Method: (§1) Modeling diabetic vasculopathy in human vascular organoids in vivo. Immunodeficient NSG mice carrying human vascular organoid transplants were daily i.p. injected with 40 mg/kg Streptozotocin (STZ) (Merck, 572201) for 5 consecutive days. Every day, STZ was freshly dissolved in citrate buffer (pH4.6) and immediately used. Diabetes was confirmed (blood glucose >300 mg/dL) by measuring non-fasting glucose using the OneTouch UltraEasy system (Lifetouch, AW 06637502C). DAPT (Selleckchem 52215) was dissolved in ethanol and injected with 90% cornoil for 5 consecutive days at 5 mg/kg with 2 days of no treatment per week. Anti-Notch3 blocking antibodies (R&D AF1559) were injected 3 time/week at lmg/kg. For quantifying vessel leakage, the FITC-Dextran^+ area was measured and normalized to the area of perfused human blood vessels (hCD31^+) using the FIJI software. This ratio was then further normalized to control non-diabetic mice. Permeability of long-term DAPT treated vessels were measured after 2 days of treatment stop to avoid measuring acute effects of DAPT on vessel permeability.

[3] = tested on: human vascular organoid transplants; assay: Human CD31+ blood vessel density of vascular organoid transplants in diabetic STZ mice; format: in vivo, mouse; conditions: diabetic STZ NSG mice, DAPT 5 mg/kg
Method: as §1

[4] = tested on: human blood vessel organoids; assay: Diabetic basement membrane thickening (Collagen IV) in human blood vessel organoids cultured in diabetic medium; format: cell-based; conditions: diabetic cocktail, indicated DAPT doses (FIG. 5)

`CC(C)(C(=O)NCC(F)(F)C(F)(F)F)C(=O)N[C@@H]1C(=O)Nc2ccccc2-c2ccccc21` [RO4929097] was tested, and the “increase of Col IV+ basement membrane under diabetic conditions” value (“increase of Col IV+ basement membrane” for short) [1] was “prevent the increase of basement membrane (Col IV) under diabetic conditions”.

For `CC(C)[C@H]1CC[C@H](C(=O)N[C@H](Cc2ccccc2)C(=O)O)CC1` [nateglindine, Nateglindine], the “high glucose/TNFα/IL6-induced thickening of the basal blood vessel membrane (Collagen IV)” value (from here on “high glucose/TNFα/IL6-induced thickening”) [1] was “none of the medicines that we tested”.

`O=C1CSC(=O)N1` [thiazolidinedione, 2,4-Thiazolidinedione] was tested, and the “high glucose/TNFα/IL6-induced thickening” value [1] was “none of the medicines that we tested”.

With `C[C@H](NC(=O)Cc1cc(F)cc(F)c1)C(=O)N[C@@H]1C(=O)N(C)c2ccccc2-c2ccccc21` [Dehydroxy-LY411575] the “increase of Col IV+ basement membrane” value [1] was “prevent the increase of basement membrane (Col IV) under diabetic conditions”.

In the case of `CN(C)C(=N)N=C(N)N` [metformin, Metformin], the “high glucose/TNFα/IL6-induced thickening” value [1] is reported as “none of the medicines that we tested”.

In the case of “D114: non-crosslinked recombinant protein (Notch ligand, Delta-like protein 4) used as blocker”, the “diabetic basement membrane thickening (Col IV) on blocking Notch pathway members” value [1] is reported as “completely blocked basement membrane thickening”.

`C[C@H](NC(=O)[C@@H](O)c1cc(F)cc(F)c1)C(=O)N[C@@H]1C(=O)N(C)c2ccccc2-c2ccccc21` [LY411575] was tested, and the “increase of Col IV+ basement membrane” value [1] was “prevent the increase of basement membrane (Col IV) under diabetic conditions”.

`C[C@H](NC(=O)Cc1cc(F)cc(F)c1)C(=O)N[C@H](C(=O)OC(C)(C)C)c1ccccc1` [DAPT] was tested, and the “high glucose/TNFα/IL6-induced thickening” value [1] was “abrogates thickening of the vascular basement membrane; also recorded: can prevent diabetic vascular basement membrane thickening; also recorded: completely abrogated the expansion of collagen IV and basal membrane thickening; also recorded: nearly completely prevented the thickening of the basal membrane”, the “vessel permeability / leakage (FITC-Dextran extravasation)” value [2] was “normalized diabetic vessel permeability; also recorded: excessive blood vessel leakiness was rescued” and the “human blood vessel (CD31+) density in transplanted vascular organoids” value [3] was “restores human vessel density; also recorded: rescued the loss of CD31^+ human blood vessels”. For the same molecule, the “dose dependence of prevention of basement membrane thickening (ColIV thickness)” value [4] was “dose dependent; also recorded: dose-dependent”.

`c1ccc2c(c1)[I+]c1ccccc1-2` [diphenyleneiodonium, Diphenyleneiodonium] was tested, and the “high glucose/TNFα/IL6-induced thickening” value [1] was “none of the medicines that we tested”.

`CCC1=C(C)CN(C(=O)NCCc2ccc(S(=O)(=O)NC(=O)N[C@H]3CC[C@H](C)CC3)cc2)C1=O` [glimepiride, Glimepiride] was tested, and the “high glucose/TNFα/IL6-induced thickening” value [1] was “none of the medicines that we tested”.

B1: D111: non-crosslinked recombinant protein (Notch ligand) used as blocker (protein, UniProt O00548 18-723, looked up)
Delta-like protein 1: QVWSSGVFELKLQEFVNKKGLLGNRNCCRGGAGPPPCACRTFFRVCLKHYQASVSPEPPCTYGSAVTPVLGVDSFSLPDGGGADSAFSNPIRFPFGFTWPGTFSLIIEALHTDSPDDLATENPERLISRLATQRHLTVGEEWSQDLHSSGRTDLKYSYRFVCDEHYYGEGCSVFCRPRDDAFGHFTCGERGEKVCNPGWKGPYCTEPICLPGCDEQHGFCDKPGECKCRVGWQGRYCDECIRYPGCLHGTCQQPWQCNCQEGWGGLFCNQDLNYCTHHKPCKNGATCTNTGQGSYTCSCRPGYTGATCELGIDECDPSPCKNGGSCTDLENSYSCTCPPGFYGKICELSAMTCADGPCFNGGRCSDSPDGGYSCRCPVGYSGFNCEKKIDYCSSSPCSNGAKCVDLGDAYLCRCQAGFSGRHCDDNVDDCASSPCANGGTCRDGVNDFSCTCPPGYTGRNCSAPVSRCEHAPCHNGATCHERGHRYVCECARGYGGPNCQFLLPELPPGPAVVDLTEKLEGQGGPFPWVAVCAGVILVLMLLLGCAAVVVCVRLRLQKHRPPADPCRGETETMNNLANCQREKDISVSIIGATQIKNTNKKADFHGDHSADKNGFKARYPAVDYNLVQDLKGDDTAVRDAHSKRDTKCQPQGSSGEEKGTPTTLRGGEASERKRPDSGCSTSKDTKYQSVYVISEEKDECVIATEV
In the case of B1, the “diabetic basement membrane thickening (Col IV) on blocking Notch pathway members” value [1] is reported as “did not impact on the diabetes mediated thickening of the vascular basement membrane”.
